Patent US20260285850A1, “SUBSTITUTED OXAZOLIDINONES AND IMIDAZOLINONES AS HERBICIDES” (FMC CORPORATION, priority 2023, published 2026)

Assays:
Type in all cases: in vivo
[1] = system: barnyardgrass (Echinochloa crus-galli); assay: Test A preemergence soil spray, visual injury rating 0-100; conditions: 10 days, 0 = no effect, 100 = complete control
Method in brief: (§1)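 Plants were grown in a loam soil-sand blend and treated with test chemical in a non-phytotoxic solvent mixture containing surfactant, either sprayed on soil preemergence or applied postemergence to 2-10 cm plants. After 10 days in a greenhouse, injury was scored visually against untreated controls, 0 meaning no effect and 100 complete control.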

[2] = system: blackgrass (Alopecurus myosuroides); assay: as above; conditions: 10 days, 0 = no effect, 100 = complete control
Method in brief: as §1

corn (Zea mays) [3] = assay: as above; conditions: 10 days, 0 = no effect, 100 = complete control
Method in brief: as §1

[4] = system: green foxtail (Setaria viridis); assay: as above; conditions: 10 days, 0 = no effect, 100 = complete control
Method in brief: as §1

kochia (Bassia scoparia) [5] = assay: as above; conditions: 10 days, 0 = no effect, 100 = complete control
Method in brief: as §1

[6] = system: oat, wild (wild oat, Avena fatua); assay: as above; conditions: 10 days, 0 = no effect, 100 = complete control
Method in brief: as §1

[7] = system: palmer (palmer amaranth, palmer pigweed, Amaranthus palmeri); assay: as above; conditions: 10 days, 0 = no effect, 100 = complete control
Method in brief: as §1

[8] = system: ryegrass, Italian (italian ryegrass, Lolium multiflorum); assay: as above; conditions: 10 days, 0 = no effect, 100 = complete control
Method in brief: as §1

soybean (Glycine max) [9] = assay: as above; conditions: 10 days, 0 = no effect, 100 = complete control
Method in brief: as §1

[10] = system: wheat (Triticum aestivum); assay: as above; conditions: 10 days, 0 = no effect, 100 = complete control
Method in brief: as §1

[11] = system: barnyardgrass (Echinochloa crus-galli); assay: Test A postemergence application, visual injury rating 0-100; conditions: Postemergence, 10 days; for Barnyardgrass plant response rating (0 to 100 scale): 0 is no effect, 100 is complete control
Method in brief: as §1

[12] = system: blackgrass (Alopecurus myosuroides); assay: as above; conditions: Postemergence, 10 days; for Blackgrass plant response rating (0 to 100 scale): 0 is no effect, 100 is complete control
Method in brief: as §1

corn (Zea mays) [13] = assay: as above; conditions: Postemergence, 10 days, 0 is no effect, 100 is complete control
Method in brief: as §1

[14] = system: galium (catchweed bedstraw, Galium aparine); assay: as above; conditions: Postemergence, 10 days; for Galium plant response rating (0 to 100 scale): 0 is no effect, 100 is complete control
Method in brief: as §1

[15] = system: green foxtail (Setaria viridis); assay: as above; conditions: Postemergence, 10 days; for Foxtail, Green plant response rating (0 to 100 scale): 0 is no effect, 100 is complete control
Method in brief: as §1

[16] = system: horseweed (Erigeron canadensis); assay: as above; conditions: Postemergence, 10 days; for Horseweed plant response rating (0 to 100 scale): 0 is no effect, 100 is complete control
Method in brief: as §1

kochia (Bassia scoparia) [17] = assay: as above; conditions: Postemergence, 10 days; for Kochia plant response rating (0 to 100 scale): 0 is no effect, 100 is complete control
Method in brief: as §1

[18] = system: oat, wild (wild oat, Avena fatua); assay: as above; conditions: Postemergence, 10 days, 0 is no effect, 100 is complete control
Method in brief: as §1

[19] = system: palmer (palmer amaranth, palmer pigweed, Amaranthus palmeri); assay: as above; conditions: Postemergence, 10 days, 0 is no effect, 100 is complete control
Method in brief: as §1

[20] = system: ragweed (common ragweed, Ambrosia artemisiifolia); assay: as above; conditions: Postemergence, 10 days, 0 is no effect, 100 is complete control
Method in brief: as §1

[21] = system: ryegrass, Italian (italian ryegrass, Lolium multiflorum); assay: as above; conditions: Postemergence, 10 days, 0 is no effect, 100 is complete control
Method in brief: as §1

soybean (Glycine max) [22] = assay: as above; conditions: Postemergence, 10 days, 0 is no effect, 100 is complete control
Method in brief: as §1

[23] = system: wheat (Triticum aestivum); assay: as above; conditions: Postemergence, 10 days, 0 is no effect, 100 is complete control
Method in brief: as §1

[24] = system: barnyardgrass (Echinochloa crusgalli); assay: Test B flooded paddy test, visual plant response rating 0-100; conditions: 250 g ai/ha, Flood, applied to paddy water, evaluated after 13 days
Method in brief: (§2)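 Visual scores versus untreated controls were recorded 13 days after treatment of greenhouse-held plants. At the 2-leaf stage, pots were flooded 3 cm above the soil surface and compounds added straight to the water.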

[25] = system: ducksalad (Heteranthera limosa); assay: as above; conditions: 250 g ai/ha, Flood, applied to paddy water, evaluated after 13 days
Method in brief: as §2

rice (Oryza sativa) = assay: as above; conditions: 250 g ai/ha, Flood, applied to paddy water, evaluated after 13 days
Method in brief: as §2

[26] = system: sedge, umbrella (small-flower umbrella sedge, Cyperus difformis); assay: as above; conditions: 250 g ai/ha, Flood, applied to paddy water, evaluated after 13 days
Method in brief: as §2

[27] = system: ragweed (common ragweed, Ambrosia artemisiifolia); assay: Test A preemergence soil spray, visual injury rating 0-100; conditions: 1000 g ai/ha, 10 days, 0 = no effect, 100 = complete control
Method in brief: as §1

With `CC1(C(=O)NC2C=CC(C(=O)OCC#N)C2)CN(c2cc(F)cc(F)c2)C(=O)O1` (stereo not shown) [Compound 35] the “Barnyardgrass plant response rating (0 to 100 scale)” value ([1]; 125 g ai/ha) was 100, the “Barnyardgrass plant response rating (0 to 100 scale)” value ([1]; 500 g ai/ha) was 100 and the “Blackgrass plant response rating (0 to 100 scale)” value ([2]; 125 g ai/ha) was 70. For the same molecule, the “Blackgrass plant response rating (0 to 100 scale)” value ([2]; 500 g ai/ha) was 90, the “Corn plant response rating (0 to 100 scale)” value (shortened to “Corn plant response rating”) (corn (Zea mays) [3]; 125 g ai/ha) was 90 and the “Corn plant response rating” value (corn (Zea mays) [3]; 500 g ai/ha) was 100. The “Foxtail, Green plant response rating (0 to 100 scale)” value (“Foxtail … (0 to 100 scale)” below) ([4]; 125 g ai/ha) was 90, the “Foxtail … (0 to 100 scale)” value ([4]; 500 g ai/ha) was 100 and the “Kochia plant response rating (0 to 100 scale)” value (kochia (Bassia scoparia) [5]; 125 g ai/ha) was 90. For the same molecule, the “Kochia plant response rating (0 to 100 scale)” value (kochia (Bassia scoparia) [5]; 500 g ai/ha) was 90, the “Oat, Wild plant response rating (0 to 100 scale)” value (“Oat, Wild plant response rating” below) ([6]; 125 g ai/ha) was 90 and the “Oat, Wild plant response rating” value ([6]; 500 g ai/ha) was 90. For the same molecule, the “Amaranth, Palmer plant response rating (0 to 100 scale)” value ([7]; 125 g ai/ha) was 100, the “Amaranth, Palmer plant response rating (0 to 100 scale)” value ([7]; 500 g ai/ha) was 100 and the “Ryegrass, Italian plant response rating (0 to 100 scale)” value (shortened to “Ryegrass, Italian plant response rating”) ([8]; 125 g ai/ha) was 100. For the same molecule, the “Ryegrass, Italian plant response rating” value ([8]; 500 g ai/ha) was 100, the “Soybean plant response rating (0 to 100 scale)” value (shortened to “Soybean plant response rating”) (soybean (Glycine max) [9]; 125 g ai/ha) was 80 and the “Soybean plant response rating” value (soybean (Glycine max) [9]; 500 g ai/ha) was 90. The “Wheat plant response rating (0 to 100 scale)” value (shortened to “Wheat plant response rating”) ([10]; 125 g ai/ha) was 90, the “Wheat plant response rating” value ([10]; 500 g ai/ha) was 100 and the “Barnyardgrass plant response rating (0 to 100 scale)” value ([11]; 125 g ai/ha) was 100. The “Barnyardgrass plant response rating (0 to 100 scale)” value ([11]; 500 g ai/ha) was 100, the “Blackgrass plant response rating (0 to 100 scale)” value ([12]; 125 g ai/ha) was 90 and the “Blackgrass plant response rating (0 to 100 scale)” value ([12]; 500 g ai/ha) was 100. The “Corn plant response rating” value (corn (Zea mays) [13]; 125 g ai/ha) was 100, the “Corn plant response rating” value (corn (Zea mays) [13]; 500 g ai/ha) was 100 and the “Galium plant response rating (0 to 100 scale)” value ([14]; 125 g ai/ha) was 80. The “Galium plant response rating (0 to 100 scale)” value ([14]; 500 g ai/ha) was 80, the “Foxtail … (0 to 100 scale)” value ([15]; 125 g ai/ha) was 90 and the “Foxtail … (0 to 100 scale)” value ([15]; 500 g ai/ha) was 90. The “Horseweed plant response rating (0 to 100 scale)” value ([16]; 125 g ai/ha) was 80, the “Horseweed plant response rating (0 to 100 scale)” value ([16]; 500 g ai/ha) was 90 and the “Kochia plant response rating (0 to 100 scale)” value (kochia (Bassia scoparia) [17]; 125 g ai/ha) was 70. The “Kochia plant response rating (0 to 100 scale)” value (kochia (Bassia scoparia) [17]; 500 g ai/ha) was 70, the “Oat, Wild plant response rating” value ([18]; 125 g ai/ha) was 100 and the “Oat, Wild plant response rating” value ([18]; 500 g ai/ha) was 100. The “Amaranth, Palmer / Pigweed, Palmer plant response rating (0 to 100 scale)” value (“Amaranth, Palmer / Pigweed” for short) ([19]; 125 g ai/ha) was 80, the “Amaranth, Palmer / Pigweed” value ([19]; 500 g ai/ha) was 100 and the “Ragweed plant response rating (0 to 100 scale)” value (“Ragweed plant response rating” for short) ([20]; 125 g ai/ha) was 70. The “Ragweed plant response rating” value ([20]; 500 g ai/ha) was 80, the “Ryegrass, Italian plant response rating” value ([21]; 125 g ai/ha) was 90 and the “Ryegrass, Italian plant response rating” value ([21]; 500 g ai/ha) was 90. For the same molecule, the “Soybean plant response rating” value (soybean (Glycine max) [22]; 125 g ai/ha) was 70, the “Soybean plant response rating” value (soybean (Glycine max) [22]; 500 g ai/ha) was 90 and the “Wheat plant response rating” value ([23]; 125 g ai/ha) was 70. The “Wheat plant response rating” value ([23]; 500 g ai/ha) was 80, the “Plant response rating, Barnyardgrass (0 to 100 scale, 0 is no effect and 100 is complete control)” value [24] was 95 and the “Plant response rating, Ducksalad (0 to 100 scale, 0 is no effect and 100 is complete control)” value [25] was 90. The “Plant response rating, Rice (0 to 100 scale, 0 is no effect and 100 is complete control)” value (rice (Oryza sativa)) was 50 and the “Plant response rating, Sedge, Umbrella (0 to 100 scale, 0 is no effect and 100 is complete control)” value [26] was 90.
For `CC1(C(=O)NC2CC=C(C(=O)O)C2)CN(c2cc(F)cc(F)c2)C(=O)N1` (stereo not shown) [Compound 182], the “Barnyardgrass plant response rating (0 to 100 scale)” value ([1]; 1000 g ai/ha) was 80, the “Blackgrass plant response rating (0 to 100 scale)” value ([2]; 1000 g ai/ha) was 90 and the “Foxtail … (0 to 100 scale)” value ([4]; 1000 g ai/ha) was 100. For the same molecule, the “Kochia plant response rating (0 to 100 scale)” value (kochia (Bassia scoparia) [5]; 1000 g ai/ha) was 90, the “Amaranth, Palmer / Pigweed” value ([7]; 1000 g ai/ha) was 90 and the “Ragweed plant response rating” value [27] was 30. For the same molecule, the “Ryegrass, Italian plant response rating” value ([8]; 1000 g ai/ha) was 90, the “Barnyardgrass plant response rating” value ([11]; 1000 g ai/ha, 0 to 100 scale) was 90 and the “Blackgrass plant response rating” value ([12]; 1000 g ai/ha, 0 to 100 scale) was 90. The “Galium plant response rating” value ([14]; 1000 g ai/ha, 0 to 100 scale) was 90, the “Foxtail, Green plant response rating” value ([15]; 1000 g ai/ha, 0 to 100 scale) was 90 and the “Horseweed plant response rating” value ([16]; 1000 g ai/ha, 0 to 100 scale) was 80. For the same molecule, the “Kochia plant response rating” value (kochia (Bassia scoparia) [17]; 1000 g ai/ha, 0 to 100 scale) was 80, the “Plant response rating, Barnyardgrass (0 to 100 scale, 0 is no effect and 100 is complete control)” value [24] was 20 and the “Plant response rating, Ducksalad (0 to 100 scale, 0 is no effect and 100 is complete control)” value [25] was 60. The “Plant response rating, Rice (0 to 100 scale, 0 is no effect and 100 is complete control)” value (rice (Oryza sativa)) was 15 and the “Plant response rating, Sedge, Umbrella (0 to 100 scale, 0 is no effect and 100 is complete control)” value [26] was 70.
